Experimental data as given in ChEMBL document CHEMBL4507305, “Data for DCP probe TP-024” (2021).

How the values were obtained:
[1] = target: 3-phosphoinositide-dependent protein kinase 1 (Homo sapiens) (UniProt O15530); details: Compound concentration 1000.0 nM
[2] = target: Death-associated protein kinase 1 (Homo sapiens) (UniProt P53355); details: Compound concentration 1000.0 nM
[3] = test system: eIF-2-alpha kinase GCN2 (Homo sapiens), Q9P2K8 [S808G]; details: Compound concentration 1000.0 nM
[4] = target: Calcium/calmodulin-dependent protein kinase kinase 1 (Homo sapiens) (UniProt Q8N5S9); details: Compound concentration 1000.0 nM
[5] = target: Tyrosine-protein kinase ABL1 (Homo sapiens) (UniProt P00519); details: Compound concentration 1000.0 nM
[6] = target: RAC-beta serine/threonine-protein kinase (Homo sapiens) (UniProt P31751); details: Compound concentration 1000.0 nM
[7] = target: Serine/threonine-protein kinase DCLK1 (Homo sapiens) (UniProt O15075); details: Compound concentration 1000.0 nM
Serine/threonine-protein kinase DCLK1 (Homo sapiens), sequence (O15075 whole entry): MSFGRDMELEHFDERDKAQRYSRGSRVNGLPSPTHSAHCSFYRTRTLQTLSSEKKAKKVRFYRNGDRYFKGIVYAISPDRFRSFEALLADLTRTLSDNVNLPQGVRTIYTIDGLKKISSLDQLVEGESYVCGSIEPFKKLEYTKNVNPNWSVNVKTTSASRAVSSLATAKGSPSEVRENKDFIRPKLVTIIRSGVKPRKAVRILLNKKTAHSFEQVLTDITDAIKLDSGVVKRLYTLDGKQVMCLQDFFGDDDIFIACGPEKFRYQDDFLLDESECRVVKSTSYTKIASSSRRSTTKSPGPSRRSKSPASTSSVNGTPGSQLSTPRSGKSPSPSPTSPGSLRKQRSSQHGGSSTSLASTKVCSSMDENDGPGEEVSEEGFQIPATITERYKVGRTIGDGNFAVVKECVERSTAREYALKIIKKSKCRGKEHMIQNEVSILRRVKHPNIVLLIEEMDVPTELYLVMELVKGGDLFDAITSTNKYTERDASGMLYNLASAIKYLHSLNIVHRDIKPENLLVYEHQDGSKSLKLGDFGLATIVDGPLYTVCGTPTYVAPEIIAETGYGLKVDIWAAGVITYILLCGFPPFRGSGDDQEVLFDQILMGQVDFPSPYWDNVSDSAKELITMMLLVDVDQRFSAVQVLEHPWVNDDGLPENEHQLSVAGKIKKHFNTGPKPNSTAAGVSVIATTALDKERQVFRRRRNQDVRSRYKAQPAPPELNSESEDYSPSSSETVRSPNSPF

[8] = test system: Epidermal growth factor receptor (Homo sapiens), P00533 [L858R,T790M]; details: Compound concentration 1000.0 nM
[9] = target: Serine/threonine-protein kinase DCLK2 (Homo sapiens) (UniProt Q8N568); details: Compound concentration 1000.0 nM
[10] = test system: Serine/threonine-protein kinase B-raf (Homo sapiens), P15056 [V600E]; details: Compound concentration 1000.0 nM
[11] = target: Beta-2 adrenergic receptor (Homo sapiens) (UniProt P07550); details: Compound concentration 10.0 uM
[12] = target: Serine/threonine-protein kinase RIO1 (Homo sapiens) (UniProt Q9BRS2); details: Compound concentration 1000.0 nM
[13] = target: Mast/stem cell growth factor receptor Kit (Homo sapiens) (UniProt P10721); details: Compound concentration 1000.0 nM
[14] = target: Maternal embryonic leucine zipper kinase (Homo sapiens) (UniProt Q14680); details: Compound concentration 1000.0 nM
Maternal embryonic leucine zipper kinase (Homo sapiens), sequence (Q14680 whole entry, looked up): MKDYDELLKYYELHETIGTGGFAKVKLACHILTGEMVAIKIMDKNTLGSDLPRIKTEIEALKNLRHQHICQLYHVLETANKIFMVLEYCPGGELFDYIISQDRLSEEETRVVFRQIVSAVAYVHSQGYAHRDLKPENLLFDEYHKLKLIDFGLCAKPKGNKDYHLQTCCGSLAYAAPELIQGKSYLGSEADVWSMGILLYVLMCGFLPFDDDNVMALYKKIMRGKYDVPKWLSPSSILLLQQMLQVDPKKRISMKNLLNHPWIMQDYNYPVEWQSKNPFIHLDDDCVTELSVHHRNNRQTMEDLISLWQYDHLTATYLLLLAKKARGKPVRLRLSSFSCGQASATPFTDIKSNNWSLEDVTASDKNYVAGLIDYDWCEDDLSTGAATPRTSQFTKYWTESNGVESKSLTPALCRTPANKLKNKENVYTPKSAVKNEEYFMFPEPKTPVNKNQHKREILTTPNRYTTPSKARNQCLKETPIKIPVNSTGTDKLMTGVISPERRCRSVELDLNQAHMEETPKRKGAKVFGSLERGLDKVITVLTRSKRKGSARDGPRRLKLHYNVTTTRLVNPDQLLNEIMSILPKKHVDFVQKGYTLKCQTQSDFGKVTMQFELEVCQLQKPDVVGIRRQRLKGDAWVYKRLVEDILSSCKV

[15] = target: Rho-associated protein kinase 2 (Homo sapiens) (UniProt O75116); details: Compound concentration 1000.0 nM
[16] = target: Serine/threonine-protein kinase WNK3 (Homo sapiens) (UniProt Q9BYP7); details: Compound concentration 1000.0 nM
[17] = target: Rhodopsin kinase GRK7 (Homo sapiens) (UniProt Q8WTQ7); details: Compound concentration 1000.0 nM
[18] = target: Myosin-IIIa (Homo sapiens) (UniProt Q8NEV4); details: Compound concentration 1000.0 nM
[19] = target: Cyclin-dependent kinase 5 (Homo sapiens) (UniProt Q00535); details: Compound concentration 1000.0 nM
Cyclin-dependent kinase 5 (Homo sapiens), sequence (Q00535 whole entry, looked up): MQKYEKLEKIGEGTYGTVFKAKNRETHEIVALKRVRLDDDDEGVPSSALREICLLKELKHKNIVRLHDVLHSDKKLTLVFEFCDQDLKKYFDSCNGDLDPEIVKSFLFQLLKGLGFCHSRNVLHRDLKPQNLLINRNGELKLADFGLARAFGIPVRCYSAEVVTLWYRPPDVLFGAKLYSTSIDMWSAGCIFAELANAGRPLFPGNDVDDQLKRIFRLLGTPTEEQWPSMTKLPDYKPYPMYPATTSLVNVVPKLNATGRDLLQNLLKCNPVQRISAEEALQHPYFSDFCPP

[20] = target: Death-associated protein kinase 3 (Homo sapiens) (UniProt O43293); details: Compound concentration 1000.0 nM
[21] = target: MAP kinase-activated protein kinase 5 (Homo sapiens) (UniProt Q8IW41); details: Compound concentration 1000.0 nM
[22] = target: Mitogen-activated protein kinase kinase kinase 1 (Homo sapiens) (UniProt Q13233); details: Compound concentration 1000.0 nM
Mitogen-activated protein kinase kinase kinase 1 (Homo sapiens), sequence (Q13233 whole entry): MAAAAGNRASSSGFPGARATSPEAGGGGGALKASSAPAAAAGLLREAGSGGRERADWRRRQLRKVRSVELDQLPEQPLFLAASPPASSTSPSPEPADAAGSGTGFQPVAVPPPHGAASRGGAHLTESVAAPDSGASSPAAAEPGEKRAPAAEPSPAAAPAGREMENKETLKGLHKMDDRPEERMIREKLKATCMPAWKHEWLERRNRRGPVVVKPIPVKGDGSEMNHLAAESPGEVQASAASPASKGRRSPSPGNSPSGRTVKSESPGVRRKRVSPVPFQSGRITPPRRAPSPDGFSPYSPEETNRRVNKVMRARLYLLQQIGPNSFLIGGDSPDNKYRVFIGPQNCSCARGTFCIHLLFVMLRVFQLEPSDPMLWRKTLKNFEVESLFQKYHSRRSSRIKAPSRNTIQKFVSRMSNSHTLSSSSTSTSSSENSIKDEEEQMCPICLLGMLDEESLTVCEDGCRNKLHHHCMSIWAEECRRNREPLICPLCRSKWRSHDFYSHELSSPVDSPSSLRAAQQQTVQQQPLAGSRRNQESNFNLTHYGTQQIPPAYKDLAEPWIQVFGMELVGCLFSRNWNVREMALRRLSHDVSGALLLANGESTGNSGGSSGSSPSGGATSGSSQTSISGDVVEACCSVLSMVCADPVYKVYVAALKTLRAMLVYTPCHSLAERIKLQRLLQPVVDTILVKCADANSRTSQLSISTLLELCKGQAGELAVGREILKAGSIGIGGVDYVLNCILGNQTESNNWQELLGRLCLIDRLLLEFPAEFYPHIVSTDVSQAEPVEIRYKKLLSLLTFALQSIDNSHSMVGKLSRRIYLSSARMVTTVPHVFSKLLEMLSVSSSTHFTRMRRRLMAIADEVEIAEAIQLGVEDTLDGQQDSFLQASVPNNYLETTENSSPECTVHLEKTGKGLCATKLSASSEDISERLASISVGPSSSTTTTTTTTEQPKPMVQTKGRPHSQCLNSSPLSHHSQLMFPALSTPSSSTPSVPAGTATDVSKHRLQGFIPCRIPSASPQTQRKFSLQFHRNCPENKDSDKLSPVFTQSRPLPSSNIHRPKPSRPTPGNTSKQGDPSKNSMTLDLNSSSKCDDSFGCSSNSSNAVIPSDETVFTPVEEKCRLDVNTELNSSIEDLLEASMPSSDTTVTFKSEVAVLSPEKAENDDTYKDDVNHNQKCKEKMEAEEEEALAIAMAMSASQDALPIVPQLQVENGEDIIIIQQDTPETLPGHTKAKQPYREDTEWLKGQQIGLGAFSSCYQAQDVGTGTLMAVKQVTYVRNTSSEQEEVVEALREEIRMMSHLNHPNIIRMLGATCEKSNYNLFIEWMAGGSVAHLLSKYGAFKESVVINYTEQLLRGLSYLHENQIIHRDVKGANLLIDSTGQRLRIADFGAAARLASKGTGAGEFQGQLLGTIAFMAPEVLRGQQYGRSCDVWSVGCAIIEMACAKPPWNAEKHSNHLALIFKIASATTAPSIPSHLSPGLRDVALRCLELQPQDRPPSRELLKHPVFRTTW

[23] = target: Histamine H3 receptor (Homo sapiens) (UniProt Q9Y5N1); details: Compound concentration 10.0 uM
Histamine H3 receptor (Homo sapiens), sequence (Q9Y5N1 whole entry): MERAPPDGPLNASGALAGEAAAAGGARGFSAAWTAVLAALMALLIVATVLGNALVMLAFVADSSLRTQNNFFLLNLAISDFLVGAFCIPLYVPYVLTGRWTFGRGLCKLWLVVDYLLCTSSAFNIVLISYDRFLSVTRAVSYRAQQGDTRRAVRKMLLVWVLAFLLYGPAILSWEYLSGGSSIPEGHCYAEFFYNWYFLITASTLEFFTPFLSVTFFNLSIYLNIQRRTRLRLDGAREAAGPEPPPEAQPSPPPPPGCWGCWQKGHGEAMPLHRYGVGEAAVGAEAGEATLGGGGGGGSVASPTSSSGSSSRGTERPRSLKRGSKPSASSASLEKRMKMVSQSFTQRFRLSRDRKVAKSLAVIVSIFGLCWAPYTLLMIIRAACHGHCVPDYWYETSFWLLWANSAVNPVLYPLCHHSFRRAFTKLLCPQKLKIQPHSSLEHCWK

[24] = test system: Mast/stem cell growth factor receptor Kit (Homo sapiens), P10721 [V559D]; details: Compound concentration 1000.0 nM
[25] = target: Dual specificity mitogen-activated protein kinase kinase 6 (Homo sapiens) (UniProt P52564); details: Compound concentration 1000.0 nM
[26] = target: Muscle, skeletal receptor tyrosine-protein kinase (Homo sapiens) (UniProt O15146); details: Compound concentration 1000.0 nM
[27] = target: Dual specificity mitogen-activated protein kinase kinase 5 (Homo sapiens) (UniProt Q13163); details: Compound concentration 1000.0 nM
[28] = test system: Mast/stem cell growth factor receptor Kit (Homo sapiens), P10721 [V559D,V654A]; details: Compound concentration 1000.0 nM
[29] = target: Serine/threonine-protein kinase STK11 (Homo sapiens) (UniProt Q15831); details: Compound concentration 1000.0 nM
[30] = test system: Epidermal growth factor receptor (Homo sapiens), P00533 [T790M]; details: Compound concentration 1000.0 nM
[31] = target: Receptor tyrosine-protein kinase erbB-4 (Homo sapiens) (UniProt Q15303); details: Compound concentration 1000.0 nM
[32] = target: MAP kinase-interacting serine/threonine-protein kinase 1 (Homo sapiens) (UniProt Q9BUB5); details: Compound concentration 1000.0 nM
MAP kinase-interacting serine/threonine-protein kinase 1 (Homo sapiens), sequence (Q9BUB5 whole entry, looked up): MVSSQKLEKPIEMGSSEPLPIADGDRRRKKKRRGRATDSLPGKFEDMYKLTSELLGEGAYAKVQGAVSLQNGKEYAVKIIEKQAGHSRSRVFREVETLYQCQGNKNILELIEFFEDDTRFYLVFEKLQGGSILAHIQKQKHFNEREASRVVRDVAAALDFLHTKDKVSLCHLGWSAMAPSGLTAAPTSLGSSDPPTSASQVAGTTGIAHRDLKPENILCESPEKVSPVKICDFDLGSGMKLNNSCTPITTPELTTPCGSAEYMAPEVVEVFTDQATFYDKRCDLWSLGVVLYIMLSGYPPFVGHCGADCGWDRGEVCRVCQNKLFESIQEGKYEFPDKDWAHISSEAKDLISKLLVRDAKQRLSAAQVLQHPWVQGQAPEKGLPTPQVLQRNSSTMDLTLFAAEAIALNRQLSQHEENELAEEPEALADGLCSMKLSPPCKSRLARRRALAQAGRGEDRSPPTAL

[33] = target: Mitogen-activated protein kinase 4 (Homo sapiens) (UniProt P31152); details: Compound concentration 1000.0 nM
[34] = test system: Proto-oncogene tyrosine-protein kinase receptor Ret (Homo sapiens), P07949 [V804L]; details: Compound concentration 1000.0 nM
[35] = target: Mitogen-activated protein kinase kinase kinase 11 (Homo sapiens) (UniProt Q16584); details: Compound concentration 1000.0 nM
Mitogen-activated protein kinase kinase kinase 11 (Homo sapiens), sequence (Q16584 whole entry, looked up): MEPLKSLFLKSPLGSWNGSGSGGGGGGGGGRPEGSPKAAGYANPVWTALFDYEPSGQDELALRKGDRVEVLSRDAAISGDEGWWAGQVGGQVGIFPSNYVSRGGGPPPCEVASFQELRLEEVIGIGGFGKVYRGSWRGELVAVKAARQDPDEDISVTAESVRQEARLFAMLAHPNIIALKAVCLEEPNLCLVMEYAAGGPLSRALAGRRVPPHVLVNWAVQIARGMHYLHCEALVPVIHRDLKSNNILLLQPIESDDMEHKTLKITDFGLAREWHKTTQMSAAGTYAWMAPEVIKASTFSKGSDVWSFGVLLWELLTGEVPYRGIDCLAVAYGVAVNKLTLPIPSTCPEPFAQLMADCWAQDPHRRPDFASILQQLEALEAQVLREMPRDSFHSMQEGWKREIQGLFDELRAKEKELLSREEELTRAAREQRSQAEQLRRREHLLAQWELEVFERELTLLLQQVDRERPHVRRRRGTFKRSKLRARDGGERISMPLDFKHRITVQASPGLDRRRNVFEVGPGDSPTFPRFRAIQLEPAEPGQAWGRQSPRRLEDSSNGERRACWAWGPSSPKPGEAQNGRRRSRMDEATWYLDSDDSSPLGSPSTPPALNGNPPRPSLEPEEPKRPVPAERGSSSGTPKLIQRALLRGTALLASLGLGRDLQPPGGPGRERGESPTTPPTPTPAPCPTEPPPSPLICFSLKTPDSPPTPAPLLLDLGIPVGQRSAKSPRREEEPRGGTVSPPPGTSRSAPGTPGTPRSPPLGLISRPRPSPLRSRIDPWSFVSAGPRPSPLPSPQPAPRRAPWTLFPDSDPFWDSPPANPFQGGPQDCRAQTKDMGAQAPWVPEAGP

[36] = target: 1-phosphatidylinositol 3-phosphate 5-kinase (Homo sapiens) (UniProt Q9Y2I7); details: Compound concentration 1000.0 nM
[37] = target: Ribosomal protein S6 kinase alpha-3 (Homo sapiens) (UniProt P51812); details: Compound concentration 1000.0 nM
[38] = target: Serine/threonine-protein kinase D1 (Homo sapiens) (UniProt Q15139); details: Compound concentration 1000.0 nM
[39] = target: Mitogen-activated protein kinase kinase kinase 14 (Homo sapiens) (UniProt Q99558); details: Compound concentration 1000.0 nM
[40] = target: GABA-A receptor; anion channel (Rattus norvegicus) (UniProt O09028+P15431+P18506+P18508+P19969+P20236+P23574+P23576+P28471+P28473+P30191+P62813+P63079+P63138+Q91ZM7+Q9ES14); details: Compound concentration 10.0 uM
[41] = target: Mitogen-activated protein kinase 6 (Homo sapiens) (UniProt Q16659); details: Compound concentration 1000.0 nM
[42] = target: Serine/threonine-protein kinase Sgk3 (Homo sapiens) (UniProt Q96BR1); details: Compound concentration 1000.0 nM
[43] = target: Wee1-like protein kinase 2 (Homo sapiens) (UniProt P0C1S8); details: Compound concentration 1000.0 nM
[44] = target: Glycogen synthase kinase-3 alpha (Homo sapiens) (UniProt P49840); details: Compound concentration 1000.0 nM

Cc1cc(-n2nc(Cc3cc(F)cc(C(F)(F)F)c3)nc2C)ccc1C(N)=O [TP-024]
inactive: residual activity [1] 100% | residual activity [2] 99% | residual activity [3] 100% | residual activity [4] 100% | residual activity [5] 97% | residual activity [6] 100% | residual activity [7] 100% | residual activity [8] 90% | residual activity [9] 100% | residual activity [10] 100% | inhibition [11] -1.39% | residual activity [12] 85% | residual activity [13] 95% | residual activity [14] 100% | residual activity [15] 96% | residual activity [16] 100% | residual activity [17] 100% | residual activity [18] 100% | residual activity [19] 100% | residual activity [20] 87% | residual activity [21] 100% | residual activity [22] 100% | inhibition [23] 11.4% | residual activity [24] 83% | residual activity [25] 83% | residual activity [26] 100% | residual activity [27] 100% | residual activity [28] 97% | residual activity [29] 100% | residual activity [30] 94% | residual activity [31] 67% | residual activity [32] 100% | residual activity [33] 100% | residual activity [34] 100% | residual activity [35] 84% | residual activity [36] 70% | residual activity [37] 95% | residual activity [38] 92% | residual activity [39] 100% | inhibition [40] 14.4% | residual activity [41] 100% | residual activity [42] 80% | residual activity [43] 100% | residual activity [44] 97%

Cc1nc(Cc2cccc(C(F)(F)F)c2)sc1-c1ccc(C(N)=O)nc1 [TP-024n]
inactive: residual activity [1] 82% | residual activity [2] 100% | residual activity [3] 100% | residual activity [4] 98% | residual activity [5] 95% | residual activity [6] 81% | residual activity [7] 81% | residual activity [8] 87% | residual activity [9] 100% | residual activity [10] 100% | inhibition [11] 2.07% | residual activity [12] 94% | residual activity [13] 95% | residual activity [14] 100% | residual activity [15] 59% | residual activity [16] 61% | residual activity [17] 100% | residual activity [18] 98% | residual activity [19] 100% | residual activity [20] 88% | residual activity [21] 100% | residual activity [22] 100% | inhibition [23] 3.48% | residual activity [24] 100% | residual activity [25] 69% | residual activity [26] 89% | residual activity [27] 85% | residual activity [28] 83% | residual activity [29] 100% | residual activity [30] 98% | residual activity [31] 74% | residual activity [32] 100% | residual activity [33] 100% | residual activity [34] 86% | residual activity [35] 100% | residual activity [36] 75% | residual activity [37] 100% | residual activity [38] 93% | residual activity [39] 100% | inhibition [40] 9.72% | residual activity [41] 100% | residual activity [42] 100% | residual activity [43] 100% | residual activity [44] 82%
